Results on three compounds are retold here after patent publication US20080132565A1, “Polycyclic Macrolactones” (priority 2003, published 2008).

Read-outs that look alike come from different tables or passages of the source.

The nature of data set [1]: physicochemical properties: solubility.
For the next data set, the system named is Gram-positive bacteria. Description: agar diffusion test, activity spectrum. The format is cell-based. The settings on record: Gram-positive bacteria tested. How it is done: (§1) The Gram-negative bacteria and fungi which were tested were insensitive to the abyssomicins.
(A growth-free zone around the sample is the usual read-out of agar diffusion tests.)

Data set [2] relates to Streptomyces viridochromogenes Tü 57. Nature of the data set: agar diffusion test. Format: cell-based. The conditions noted are these: CM, 10 μl per filter disk. How it is done:
as §1

Data set [3] concerns Staphylococcus aureus DSM 20231. Nature of the data set: agar diffusion test. The format is cell-based. The conditions noted are these: CM, 10 μl per filter disk. As for the experimental part:
as §1

The test system of data set [4] is Bacillus subtilis DSM 10. Nature of the data set: agar diffusion test. Format: cell-based. The conditions noted are these: 10 μl per filter disk. As for the experimental part:
as §1

Data set [5] has as its system Arthrobacter aurescens DSM 20166. Description: agar diffusion test. The conditions noted are these: CM, 10 μl per filter disk. Format: cell-based. How it is done: as §1
Data set [6] has as its system Rhodococcus erythropolis DSM 1069. Nature of the data set: agar diffusion test. Format: cell-based. The conditions noted are these: 10 μl per filter disk. As for the experimental part:
as §1

Data set [7] concerns Brevibacillus brevis DSM 30. Nature of the data set: agar diffusion test. Format: cell-based. The settings on record: 10 μl per filter disk. As for the experimental part: as §1
The subject of data set [8] is Staphylococcus aureus DSM 20231. Nature of the data set: MIC dilution series test. The settings on record: CM (complex medium); 2 ml test tube scale, shaker at 120 rpm. The format is cell-based. How it is done: (§2) The minimum inhibitory concentration (MIC) of abyssomicin C was determined in a dilution series test. As expected, the test organisms are substantially more sensitive to abyssomicin C in chemically defined medium.

The test system of data set [9] is Bacillus subtilis DSM 10. Nature of the data set: MIC dilution series test. The format is cell-based. The settings on record: 2 ml test tube scale, shaker at 120 rpm. How it is done:
as §2

For data set [10], the system named is Rhodococcus erythropolis DSM 1069. Nature of the data set: MIC dilution series test. Format: cell-based. The conditions noted are these: CM (complex medium); 2 ml test tube scale, shaker at 120 rpm. How it is done: as §2

In the case of abyssomicin C, in data set [1], the solubility result was “soluble”. In addition, the antibiotic effect result in the data set on Gram-positive bacteria was “antibiotic effect”. In addition, the inhibition zone diameter in data set [2] (0.3 mg/ml) is 9 mm; in data set [2] (1 mg/ml), 11 mm; in [3] (0.1 mg/ml) it was 9 mm; in [3] (0.3 mg/ml), 11 mm; in [3] (1 mg/ml), 19 mm; in the data set on Bacillus subtilis DSM 10 [4] (CM, 0.1 mg/ml), 10 mm. The inhibition zone diameter in the data set with Bacillus subtilis DSM 10 [4] (CM, 0.3 mg/ml) amounted to 12 mm; in the data set with Bacillus subtilis DSM 10 [4] (CM, 1 mg/ml) it was 16 mm; with Bacillus subtilis DSM 10 [4] (MM, 0.1 mg/ml), 14 mm; in the data set with Bacillus subtilis DSM 10 [4] (MM, 0.3 mg/ml), 19 mm; in the data set with Bacillus subtilis DSM 10 [4] (MM, 1 mg/ml), 26 mm; in [5] (0.3 mg/ml), 10 mm. For the same compound, the inhibition zone diameter in [5] (1 mg/ml) is 14 mm; in data set [6] (CM (first line, r17), 0.1 mg/ml), 15 mm; in data set [6] (CM (first line, r17), 0.3 mg/ml) it was 18 mm; in data set [6] (CM (first line, r17), 1 mg/ml), 27 mm; in [6] (CM (second line, r18), 0.1 mg/ml), 21 mm; in [6] (CM (second line, r18), 0.3 mg/ml) it was 28 mm. Moreover, the inhibition zone diameter amounted to 30 mm in [6] (CM (second line, r18), 1 mg/ml); 9 mm in data set [7] (CM, 0.1 mg/ml); 12 mm in data set [7] (CM, 0.3 mg/ml); 17 mm in [7] (CM, 1 mg/ml); 19 mm in data set [7] (MM, 0.1 mg/ml); 24 mm in data set [7] (MM, 0.3 mg/ml). The inhibition zone diameter in data set [7] (MM, 1 mg/ml) is 30 mm. Also, the “Minimum inhibitory concentration (MIC)” value in data set [8] was 100 µg/mL; in the data set on Bacillus subtilis DSM 10 [9] (CM (complex medium)), 10 µg/mL; in the data set on Bacillus subtilis DSM 10 [9] (MM (chemically defined medium)), 0.1 µg/mL; in data set [10], 10 µg/mL.

Take `CC1CC(C)/C(O)=C2/C(=O)OC34CC(C)C5OC23C(CC4C5O)C1=O` (stereo not drawn) [abyssomicin D]: the solubility result in data set [1] (in methanol and DMSO) is on record as “soluble”.

Turning to `CC1CC(C)C2(O)CC(=NO2)C2C(O)C3OC4=C(C(=O)OC42CC3C)C1=O` (stereo not drawn) [abyssomicin B], in data set [1] (in methanol and DMSO), the solubility result was “soluble”.
